Values after ≈ are worked out from the molar mass of the structure shown. Read-outs that look alike come from different tables or passages of the source. One block for each molecule: values may come before it.
Columns and labels:
Type in all cases: physicochemical
[1] = Aqueous solubility determination via HPLC calibration curve
Experimental: The solubility determination was made as follows. Each salt suspension was made by adding 50-100 mg of material into a minimum amount of water (0.1-0.2 mL to start). Based on solubility, additional material was added to obtain a salt suspension. The suspension was then filtered through a 0.25 μm filter and the filtrate was further diluted with water and the salt solution was analysed by HPLC. The concentration of the salt solution injected was calculated with the linear equation y=mx+c derived from the calibration curves, with Y referring to the HPLC response obtained for the salt solution injected.

[2] = Characterization of the resulting solid form (hygroscopicity)
[3] = Competitive slurries (cross-seeding) of free base Forms A and B, solids analysed by XRPD; conditions: for XRPD form after competitive slurry: Forms A and B equal amounts, 72 h
Experimental: This set of experiments was performed using various solvents and solvent combinations. Cross-seeding experiments were performed over a range of temperatures to help define the relationship between Forms A and B.
Procedure: Twenty-one cross-seeding experiments were performed by adding equal amounts of Forms A and B (weight/weight, total of 25 mg). The mixture was slurried in the given solvent/system (ca. 5 vol. 125 μl) at room temperature, then matured at a specific temperature (5° C., 25° C. or 50° C.) for 72 h. The solids were filtered, air dried and analysed by XRPD. After two days, samples 3 and 15 were completely dry and additional portions of their corresponding solvents were added, (250 μl was added to sample 3 and 248.6 μl was added to sample 15). Solids obtained were characterised by XRPD.

[4] = aqueous (water), filtered suspension, HPLC
[5] = water, thermodynamic from solid, aqueous (water), filtered suspension, HPLC, read-out: Solubility

- solubility ([1]; thermodynamic from solid, aqueous (water), filtered suspension, HPLC, read-out: Solubility): 421 mg/mL
- Hygroscopicity ([2]; Form A): slightly hygroscopic
Structure (SMILES): CC(C)(O)c1nc2ccc(Cl)cc2cc1N.O=S(=O)(O)O [Compound 3]

- solubility [1, 5]: 11 mg/mL
Structure (SMILES): CC(C)(O)c1nc2ccc(Cl)cc2cc1N.Cc1ccc(S(=O)(=O)O)cc1 [Compound 4]

- Hygroscopicity ([2]; Form A): slightly hygroscopic
Structure (SMILES): CC(C)(O)c1nc2ccc(Cl)cc2cc1N.O=S(=O)(O)c1ccccc1 [Compound 2]

- solubility [1, 5]: > 1500 mg/mL
- Aqueous solubility compared with the other compounds ([1]; water, comparison in words): highest solubility
- Hygroscopicity ([2]; Form B): slightly hygroscopic
Structure (SMILES): CC(C)(O)c1nc2ccc(Cl)cc2cc1N.CS(=O)(=O)O [Compound 1]

Further lines, the molecule ahead of its results:

Structure (SMILES): CC(C)(O)c1nc2ccc(Cl)cc2cc1N [Compound A]
- solubility [1, 4]: <0.1 mg/mL
- Hygroscopicity ([2]; Form A): non-hygroscopic
- Hygroscopicity ([2]; Form B): slightly hygroscopic
- Transition temperature between Form A and Form B [3]: below 50 °C
- XRPD form after competitive slurry ([3]; Acetone:H2O (10%), 5° C.): Form B
- XRPD form after competitive slurry ([3]; Acetone:H2O (10%), 25° C.): Form B
- XRPD form after competitive slurry ([3]; Acetone:H2O (10%), 50° C.): Forms A & B
- XRPD form after competitive slurry ([3]; Cyclohexane, 5° C.): Forms A & B
- XRPD form after competitive slurry ([3]; Cyclohexane, 25° C.): Form B
- XRPD form after competitive slurry ([3]; Cyclohexane, 50° C.): Form B
- XRPD form after competitive slurry ([3]; EtOAc:Heptane, 5° C.): Form B
- XRPD form after competitive slurry ([3]; EtOAc:Heptane, 25° C.): Form B
- XRPD form after competitive slurry ([3]; EtOAc:Heptane, 50° C.): Form B
- XRPD form after competitive slurry ([3]; Heptane, 5° C.): Form B
- XRPD form after competitive slurry ([3]; Heptane, 25° C.): Form B
- XRPD form after competitive slurry ([3]; Heptane, 50° C., additional solvent added): Form B
- XRPD form after competitive slurry ([3]; Toluene, 5° C.): Form B
- XRPD form after competitive slurry ([3]; Toluene, 25° C.): Form B
- XRPD form after competitive slurry ([3]; Toluene, 50° C.): Form A
- XRPD form after competitive slurry ([3]; Toluene:Cyclohexane, 5° C.): Form B
- XRPD form after competitive slurry ([3]; Toluene:Cyclohexane, 25° C.): Form B
- XRPD form after competitive slurry ([3]; Toluene:Cyclohexane, 50° C.): Form B
- XRPD form after competitive slurry ([3]; Toluene:Heptane, 5° C.): Form B
- XRPD form after competitive slurry ([3]; Toluene:Heptane, 25° C.): Form B
- XRPD form after competitive slurry ([3]; Toluene:Heptane, 50° C., additional solvent added): Form B
- Most stable form in competitive slurries ([3]; two anhydrous forms (Form A & Form B), under the investigated conditions): Form B

Structure (SMILES): CC(C)(O)c1nc2ccc(Cl)cc2cc1N.O=C(O)C(=O)O [Compound 6]
- solubility ([1]; water, thermodynamic from solid, Solubility): 15.6 mg/mL

Structure (SMILES): CC(C)(O)c1nc2ccc(Cl)cc2cc1N [Compound 8]
- solubility [1, 4]: 35 mg/mL (≈ 148 mM)

Structure (SMILES): CC(C)(O)c1nc2ccc(Cl)cc2cc1N [Compound 5]
- solubility [1, 4]: 73 mg/mL (≈ 308 mM)
- Hygroscopicity ([2]; Form A): slightly hygroscopic

Structure (SMILES): CC(C)(O)c1nc2ccc(Cl)cc2cc1N.O=P(O)(O)O [Compound 7]
- solubility [1, 5]: > 500 mg/mL
- Hygroscopicity ([2]; Form A): slightly hygroscopic
